Measured values from article PMC7503848 (International Journal of Molecular Sciences, 2020).
“Also recorded” adds a separate entry of the source.

Experiments:
[1] = tested on: myosin A tail; assay: Far Western-Dot blot assay; type: binding, Plasmodium falciparum; details: 5 µg immobilized on nitrocellulose; 5 µg/mL biotinylated myosin A tail, 2 h room temperature; anti-biotin
Experimental: For Far-Western Dot-blot assay, 5 µg each of ZA1S peptide, BSA, and non-specific peptide (N′- pSDNGpSGDD -C′) was immobilized on the strip. Subsequent to the drying of the membrane, it was blocked overnight at 4 °C, following which the second peptide myosin A was overlaid in 5 µg/mL of binding solution (1% BSA/PBST) on the strip for 2 h at room temperature. The strip was washed stringently, and the bound myosin A peptide was detected using an anti-biotin antibody (1:100 dilution) and HRP-conjugated secondary antibody.

[2] = tested on: P. falciparum 3D7; assay: Growth inhibition assay (GIA), P. falciparum 3D7; type: cell-based, Plasmodium falciparum
Experimental: P. falciparum 3D7 strain was thawed and cultured in vitro in human O+ erythrocytes at 4% hematocrit using the method described previously. Briefly, parasites were cultured in medium containing RPMI 1640 (Invitrogen, Carlsbad, CA, USA), supplemented with 2 g/L NaHCO3 (Sigma, St. Louis, MO, USA), 5 g/L albumax (Invitrogen), 50 mg/L hypoxanthine (Sigma), and 10 µg/mL gentamicin sulfate (Invitrogen, Carlsbad, CA, USA) at a pH of 7.2 under mixed gas condition (5% CO2, 5% O2, […]) at 37 °C.
For the growth inhibition assay, 36–38 h’ parasites were purified by percoll (GE Healthcare, Chicago, IL, USA) density gradient centrifugation. The assay was put on the late trophozoite stage in a 24-well plate in quadruplets in a total 500 µL volume/well. Initial parasitemia and hematocrit were adjusted to 1% and 2%, respectively. ZA1S peptide was added at a final concentration of 10 µM, 20 µM, and 40 µM. Control wells without any peptide or inhibitor were set to validate the normal growth rate of the parasite. After 24 h, a smear was made and fixed in methanol, followed by staining with 10% Giemsa (Sigma, St. Louis, MO, USA) for 10 min. The percent of infected erythrocytes containing different stages of the parasite was counted using a light microscope under 100X oil-immersion. The percent of growth inhibition was calculated using the following formula, and data were plotted graphically. % Growth inhibition = (Control-treated)/Control × 100

[3] = tested on: myosin A tail; assay: ELISA, myosin A tail on immobilized ZA1S; type: binding, Plasmodium falciparum; details: ZA1S coated, myosin A tail overlaid, anti-biotin antibody, 450 nm
Excerpt: All wells were put up in triplicates.

DIDIDIMHE [ZA1S, nine amino acid long shortened peptide derived from ZA1 (…)]
Detection of bound myosin A [1]: Myosin A was detected in the spot corresponding to ZA1S
Invasion inhibition ([2]; 10, 20, 40 µM ZA1S on late trophozoite/schizont stage, 24 h, 1% parasitemia, 2% hematocrit, human O+ erythrocytes, Giemsa smear): concentration-dependent increase in invasion inhibition; also recorded: abrogated the invasion of P. falciparum in RBCs
Completeness of parasite invasion inhibition ([2]; Pfal growth inhibition assay): we did not find a complete disruption of myosin A/MTIP complex so as to completely inhibit parasite invasion
Parasite morphology ([2]; increasing concentrations of ZA1S (10, 20, 40 µM), 24 h, Giemsa smear): no change in the parasite morphology
Binding of myosin A tail to ZA1S [3]: significant binding
